These are literature values, as cited in PMC6966182 (CPT: Pharmacometrics & Systems Pharmacology, 2019).

For data set [1] the following is noted: absorption rate constant, SimCYP input.
Data set [2] has as its system PBMC. To be noted: SimCYP input.
Test in data set [3]: not given
This is another data set of the same source.

Test in data set [4]: not given
The source holds these as a separate data set.

For data set [5], the system named is OAT3. The conditions noted are these: read-out: OAT3 Transporter (K i) (renal); SimCYP input.
Test in data set [6]: not given
The source holds these as a separate data set.

Test in data set [7]: not given
The source holds these as a separate data set.

The test system of data set [8] is HIV. To be noted: TFV‐DP concentration in PBMC.
[9] abbreviates: SD TFV + PRO, healthy volunteers, GM (95% confidence interval).
Setting [10] is: SD TFV–PRO, healthy volunteers, GM (95% confidence interval).

Like-named read-outs stand apart in the source and are kept apart here.

As for `C[C@H](Cn1cnc2c(N)ncnc21)OCP(=O)(O)O` [TFV, tenofovir], the “fraction unbound (f u)” value was above 0.9. Moreover, the k a in data set [1] is reported as 1.03 1/h11. For the same compound, in data set [2], the “Efflux Clint,t (PBMC additional organ)” value is 1.288 µL/minute11, 12; the “Uptake J max (PBMC additional organ)” value is reported as 10.44 pmol/minute/whole organ11, 12; the “Uptake K m (PBMC additional organ)” value is on record as 0.355 µM11, 12. In data set [3] (setting [9]), the “AUC0‐INF OBS” value is recorded as 6,349 (5,598–7,200) ng • hour/mL and the “Cmax OBS” value is 538 (494–585) ng/mL. In data set [3] (setting [10]), the “AUC0‐INF OBS” value is 3,973 (3,576–4,415) ng • hour/mL, the “CLr OBS” value was 15.4 (12.2–19.4) L/hour and the “Cmax OBS” value was 529 (451–620) ng/mL. In data set [3] (in the presence of 2 g PRO, fasted healthy volunteers, as predicted), the “increase in single‐dose TFV overall plasma exposure (AUC0‐INF)” value was 60%. In addition, the “change in TFV Cmax” value in data set [3] (in the presence of 2 g PRO, single dose, as predicted) was “nearly unchanged”. Moreover, in data set [4], the “TFV in circulation available for transporter‐mediated secretion” value is reported as 20–30% and the bioavailability is reported as ~ 25%. Besides, in data set [4] (TDF given with high‐fat or light meals, ref Other studies), the “increase in TFV systemic exposure with food” value was ~ 35%.
Consider `CCCN(CCC)S(=O)(=O)c1ccc(C(=O)O)cc1` [PRO, probenecid], for which the Ki in [5] is […]. Also, the maximum tolerated dose in data set [6] is 2 g.
For the compound `CC(Cn1cnc2c(N)ncnc21)OCP(=O)(O)OP(=O)(O)OP(=O)(O)O` (stereo in doubt) [TFV‐DP, tenofovir di‐phosphate], the “increase at the intracellular level with PRO” value in data set [7] (at 24 hours) was ~ 30%. In addition, in data set [7] (daily TDF administration), the “accumulation of TFV‐DP in PBMCs” value is listed as “greater than eightfold”. Further, the EC90 in [8] was 16 fmol/10^6 cells.
